# Experimental data reported in ChEMBL document CHEMBL1201862, “PubChem BioAssay data set” (2004).
#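 1) Cells in 96-well plates. 2) Compound, 48 h, 5 concentrations. 3) Linear interpolation between surrounding doses. 4) Unreached endpoint = highest concentration. GI50 marks 50% less growth.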 The source made the active and inactive calls. No stated cut-off is given here; in the data, active = GI50 up to about 1.1 µM and inactive = higher.
# Key:
# Test in all cases: NCI tumour cell line growth inhibition, 48 h
# SF-295 = test system: SF-295
# HCT-116 = test system: HCT-116
# UACC-257 = test system: UACC-257
# SK-MEL-2 = test system: SK-MEL-2
# OVCAR-3 = test system: OVCAR-3
# OVCAR-4 = test system: OVCAR-4
# MDA-MB-435 = test system: MDA-MB-435
# HOP-92 = test system: HOP-92
# A549 = test system: A549
# SK-OV-3 = test system: SK-OV-3
# ACHN = test system: ACHN
# SF-539 = test system: SF-539
# HCT-15 = test system: HCT-15
# NCI-H23 = test system: NCI-H23
# A498 = test system: A498
# SR = test system: SR
# NCI-H226 = test system: NCI-H226
# NCI-H522 = test system: NCI-H522
# K562 = test system: K562
# DU-145 = test system: DU-145
# HOP-62 = test system: HOP-62
# HL-60 = test system: HL-60
# SK-MEL-5 = test system: SK-MEL-5
# SNB-75 = test system: SNB-75
# PC-3 = test system: PC-3
# OVCAR-8 = test system: OVCAR-8
# COLO 205 = test system: COLO 205
# SW-620 = test system: SW-620
# EKVX = test system: EKVX
# LOX IMVI = test system: LOX IMVI
# MDA-N = test system: MDA-N
# OVCAR-5 = test system: OVCAR-5
# SK-MEL-28 = test system: SK-MEL-28
# HT-29 = test system: HT-29
# NCI-H460 = test system: NCI-H460
# KM12 = test system: KM12
# Malme-3M = test system: Malme-3M
# CAKI-1 = test system: CAKI-1
# NCI/ADR-RES = test system: NCI/ADR-RES
# T47D = test system: T47D
# IGROV-1 = test system: IGROV-1
# M14 = test system: M14
# Hs-578T = test system: Hs-578T
# SN12C = test system: SN12C
# HCC 2998 = test system: HCC 2998
# SF-268 = test system: SF-268
# SNB-19 = test system: SNB-19
# RPMI-8226 = test system: RPMI-8226
# 786-0 = test system: 786-0
# UACC-62 = test system: UACC-62
# TK-10 = test system: TK-10
# U-251 = test system: U-251
# CCRF-CEM = test system: CCRF-CEM
# MCF7 = test system: MCF7
# MDA-MB-231 = test system: MDA-MB-231
# RXF 393 = test system: RXF 393
# MOLT-4 = test system: MOLT-4
# UO-31 = test system: UO-31
smiles,measurement,setting,value
CC1(C)OP(=O)(c2ccccc2)C=C1Br (centres undefined),GI50,SF-295,> 100 µM (inactive)
same,GI50,HCT-116,> 100 µM (inactive)
same,GI50,UACC-257,> 100 µM (inactive)
same,GI50,SK-MEL-2,> 100 µM (inactive)
same,GI50,OVCAR-3,> 100 µM (inactive)
same,GI50,OVCAR-4,> 100 µM (inactive)
same,GI50,MDA-MB-435,> 100 µM (inactive)
same,GI50,HOP-92,> 100 µM (inactive)
same,GI50,A549,> 100 µM (inactive)
same,GI50,SK-OV-3,> 100 µM (inactive)
same,GI50,ACHN,> 100 µM (inactive)
same,GI50,SF-539,> 100 µM (inactive)
same,GI50,HCT-15,> 100 µM
same,GI50,NCI-H23,> 100 µM (inactive)
same,GI50,A498,> 100 µM (inactive)
same,GI50,SR,> 100 µM (inactive)
same,GI50,NCI-H226,> 100 µM (inactive)
same,GI50,NCI-H522,> 100 µM (inactive)
same,GI50,K562,> 100 µM (inactive)
same,GI50,DU-145,> 100 µM (inactive)
same,GI50,HOP-62,> 100 µM (inactive)
same,GI50,HL-60,21 µM (inactive)
same,GI50,SK-MEL-5,> 100 µM (inactive)
same,GI50,SNB-75,> 100 µM (inactive)
same,GI50,PC-3,> 100 µM (inactive)
same,GI50,OVCAR-8,> 100 µM (inactive)
same,GI50,COLO 205,> 100 µM (inactive)
same,GI50,SW-620,> 100 µM (inactive)
same,GI50,EKVX,> 100 µM (inactive)
same,GI50,LOX IMVI,> 100 µM (inactive)
same,GI50,MDA-N,> 100 µM (inactive)
same,GI50,OVCAR-5,> 100 µM (inactive)
same,GI50,SK-MEL-28,> 100 µM (inactive)
same,GI50,HT-29,> 100 µM (inactive)
same,GI50,NCI-H460,> 100 µM (inactive)
same,GI50,KM12,> 100 µM (inactive)
same,GI50,Malme-3M,> 100 µM (inactive)
same,GI50,CAKI-1,> 100 µM (inactive)
same,GI50,NCI/ADR-RES,> 100 µM (inactive)
same,GI50,T47D,> 100 µM (inactive)
same,GI50,IGROV-1,> 100 µM (inactive)
same,GI50,M14,> 100 µM (inactive)
same,GI50,Hs-578T,> 100 µM (inactive)
same,GI50,SN12C,> 100 µM (inactive)
same,GI50,HCC 2998,> 100 µM (inactive)
same,GI50,SF-268,> 100 µM (inactive)
same,GI50,SNB-19,> 100 µM (inactive)
same,GI50,RPMI-8226,0.348 µM (active)
same,GI50,786-0,> 100 µM (inactive)
same,GI50,UACC-62,> 100 µM (inactive)
same,GI50,TK-10,> 100 µM (inactive)
same,GI50,U-251,> 100 µM (inactive)
CC1=C(C)CC(C#N)(C#N)C(C#N)(C#N)C1,GI50,SF-295,> 10 µM (inactive)
same,GI50,CCRF-CEM,1.45 µM (inactive)
same,GI50,HCT-116,> 4.91 µM (inactive)
same,GI50,UACC-257,> 10 µM (inactive)
same,GI50,MCF7,> 5.65 µM (inactive)
same,GI50,SK-MEL-2,> 10 µM (inactive)
same,GI50,MDA-MB-231,> 10 µM (inactive)
same,GI50,RXF 393,> 4.39 µM (inactive)
same,GI50,OVCAR-3,> 5.52 µM (inactive)
same,GI50,OVCAR-4,> 8.04 µM (inactive)
same,GI50,HOP-92,> 3.28 µM (inactive)
same,GI50,A549,> 10 µM (inactive)
same,GI50,SK-OV-3,> 10 µM (inactive)
same,GI50,ACHN,> 8.79 µM (inactive)
same,GI50,SF-539,> 10 µM (inactive)
same,GI50,HCT-15,> 10 µM
same,GI50,NCI-H23,> 4.37 µM (inactive)
same,GI50,A498,> 10 µM (inactive)
same,GI50,SR,0.0802 µM (active)
same,GI50,NCI-H226,> 10 µM (inactive)
same,GI50,NCI-H522,1 µM (active)
same,GI50,K562,2.2 µM (inactive)
same,GI50,DU-145,> 10 µM (inactive)
same,GI50,HOP-62,> 10 µM (inactive)
same,GI50,HL-60,1.47 µM (inactive)
same,GI50,SK-MEL-5,> 6.19 µM (inactive)
same,GI50,SNB-75,> 10 µM (inactive)
same,GI50,PC-3,> 6.35 µM (inactive)
same,GI50,OVCAR-8,> 5.45 µM (inactive)
same,GI50,COLO 205,4.21 µM (inactive)
same,GI50,SW-620,2.31 µM (inactive)
same,GI50,EKVX,> 10 µM (inactive)
same,GI50,MOLT-4,2.51 µM (inactive)
same,GI50,LOX IMVI,> 10 µM (inactive)
same,GI50,MDA-N,> 4.78 µM (inactive)
same,GI50,OVCAR-5,> 10 µM (inactive)
same,GI50,SK-MEL-28,> 10 µM (inactive)
same,GI50,HT-29,> 5.78 µM (inactive)
same,GI50,NCI-H460,> 10 µM (inactive)
same,GI50,KM12,> 10 µM (inactive)
same,GI50,Malme-3M,> 6.4 µM (inactive)
same,GI50,CAKI-1,> 10 µM (inactive)
same,GI50,NCI/ADR-RES,> 10 µM (inactive)
same,GI50,T47D,> 5.71 µM (inactive)
same,GI50,IGROV-1,> 3.83 µM (inactive)
same,GI50,M14,2.86 µM (inactive)
same,GI50,UO-31,> 10 µM (inactive)
same,GI50,Hs-578T,> 10 µM (inactive)
same,GI50,SN12C,> 9.12 µM (inactive)
same,GI50,HCC 2998,> 10 µM (inactive)
same,GI50,SF-268,> 10 µM (inactive)
same,GI50,SNB-19,> 10 µM (inactive)
same,GI50,RPMI-8226,2.18 µM (inactive)
same,GI50,786-0,> 4.94 µM (inactive)
same,GI50,UACC-62,> 6.58 µM (inactive)
same,GI50,TK-10,> 5.05 µM (inactive)
same,GI50,U-251,> 10 µM (inactive)
